Where “and” joins values, the source holds several entries; their conditions need not be identical. Equal entries are not always repeated.
Key:
[1] = system: wild-type worms (C. elegans N2); format: in vivo, Caenorhabditis elegans
Procedure: Eggs were transferred to 24-well plates (Corning Inc., NY) containing 1 ml S-medium, without cholesterol, plus 1×10^8 cells/ml E. coli OP50, and grown at 25° C. All assays were performed on 3 day old egg-laying hermaphrodites. For worms treated with the superoxide/dismutase mimetic Euk-134 (Eukarion, Mass.) a single dose was added from a 5 mM stock (in Milli-Q water) on day one. At adulthood, 100 μL of culture media was removed from each well and replaced with 100 μL of paraquat stock solution (final concentration 40 mM). The cultures were then placed back at 25° C. and scored 48 h later for touch-provoked movement using a platinum wire. Immediately following the manual score, SYTOX green dye was added to each well to a final concentration of 1 μM.
We then examined the utility of SYTOX green dye as a score of death due to oxidative stress by incubating 3 day old gravid adult worms in the presence or absence of 40 mM paraquat for 48 hr. Death was first scored by the absence of touch provoked movement and 15 min later by the presence of SYTOX-associated fluorescence (FIG. 6A). […] Following the addition of […] SYTOX green dye and incubation for 15 min at room temperature, death was scored as the presence of fluorescence (FIG. 6A). The mean fraction alive (±SEM) as scored by SYTOX-associated fluorescence was 0.95±0.02 (n=69) in controls and 0.07±0.04 (n=157) in paraquat treated worms.
The utility of SYTOX dye was further tested in an experiment in which worms were cultured in the presence or absence of Euk-134 prior to paraquat exposure (FIG. 6B). […] The mean fraction alive (±SEM) scored by touch-provoked movement was 0.06±0.03 (n=47, 40 mM paraquat) and 0.78±0.11 (n 51, 40 mM paraquat+0.5 mM Euk134). The mean fraction alive (±SEM) scored using SYTOX dye was 0.13±0.00 (n=45, 40 mM paraquat) and 0.92±0.01 (n=51, 40 mM paraquat+0.5 mM Euk134). In each of these experiments the percentage of animals scored as alive using the SYTOX score was always slightly higher than the manual score.

wild type C. elegans N2 [2] = test: Microplate thermotolerance assay (35° C. heat shock, SYTOX fluorescence score of death); format: in vivo, Caenorhabditis elegans; design: thermotolerance compared to untreated wild type worms: dose or concentration left out as unconfirmed; settings: heat shock 35° C.
Procedure: Worms (˜10,000 to 20,000) were washed off NGM plates with 10 ml S-basal into a 15 ml tube. After gravity settling for 5 minutes, 9 ml S-basal was aspirated and replaced with fresh 9 ml S-basal. Following a further 2 washes the nematodes were introduced to the sample cup on the COPAS™ BIOSORT at a concentration of 1 worm per μl. Worms were dispensed, 1 animal per well, into either 96 well or 384 well microtitre plates according to the manufacturers instructions. For thermotolerance assays 384 well low volume plates (Greiner Bio-One Inc, Longwood, Fla.) were prepared with 20 μl S-medium containing SYTOX® at a final concentration of 1 μM. […]
The thermotolerance assay was performed in a Fluoroskan Ascent fluorometer (Thermo Labsystems, Finland). The ambient temperature of the fluorometer was set to 35° C. and Ascent software was configured to measure the fluorescence from each well every 30 minutes over a 20-24 hour period with a 20 millisecond measurement time for each well. At this setting a complete 384 well plate could be read within 30 seconds. The excitation wavelength for fluorescence was 485 nm and the emission wavelength 538 nm.
Analysis of individual fluorescence curves was performed using the Fluoroskan Ascent software. A 100% increase in fluorescence over baseline was used a cut-off to define a death event. […]

wild type C. elegans N2 [3] = settings: Babar et al. (1999); cited from earlier work
[4] = 40 mM paraquat+0.5 mM Euk134, 48 h

In the case of `C[n+]1ccc(-c2cc[n+](C)cc2)cc1` [paraquat], the “mean fraction alive (±SEM), SYTOX-associated fluorescence score” value ([1]; 40 mM paraquat alone, 48 h, 3 day old gravid adults, 15 min SYTOX) is reported as 0.07±0.04 and 0.13±0.00.

In the case of `COc1cccc(C=NCCN=Cc2cccc(OC)c2[O-])c1[O-].[Cl-].[Mn+3]` [Euk-134], the “mean fraction alive (±SEM), scored by touch-provoked movement” value [1, 4] is reported as 0.78±0.11 and the “mean fraction alive (±SEM), scored using SYTOX dye” value [1, 4] is reported as 0.92±0.01.

For `O=c1cc(N2CCOCC2)oc2c(-c3ccccc3)cccc12` [LY294002, 2-(4-Morpholinyl)-8-phenyl-4H-1-benzopyran-4-one], the “effect of the drug on thermotolerance” value (wild type C. elegans N2 [2]; 100 nM LY294002) is given as “no significant effect”, the “thermotolerance compared to untreated wild type worms” value (wild type C. elegans N2 [2]; grown from eggs to 4 day adults in S-medium at 20° C.) is given as “significantly more thermotolerant” and the “thermotolerance of treated wild type worms (previously shown)” value (wild type C. elegans N2 [3]) is given as “confers thermotolerance similar to that seen in age-1(hx546)”.
